In patent EP3807270B1, “NOVEL HETEROARYL HETEROCYCLYL COMPOUNDS FOR THE TREATMENT OF AUTOIMMUNE DISEASE” (F. Hoffmann-La Roche AG, priority 2018, dated 2019):

Molecular target: T1, hTLR7 (Homo sapiens, UniProt Q9NYK1)
T1 sequence (Q9NYK1 27-1049): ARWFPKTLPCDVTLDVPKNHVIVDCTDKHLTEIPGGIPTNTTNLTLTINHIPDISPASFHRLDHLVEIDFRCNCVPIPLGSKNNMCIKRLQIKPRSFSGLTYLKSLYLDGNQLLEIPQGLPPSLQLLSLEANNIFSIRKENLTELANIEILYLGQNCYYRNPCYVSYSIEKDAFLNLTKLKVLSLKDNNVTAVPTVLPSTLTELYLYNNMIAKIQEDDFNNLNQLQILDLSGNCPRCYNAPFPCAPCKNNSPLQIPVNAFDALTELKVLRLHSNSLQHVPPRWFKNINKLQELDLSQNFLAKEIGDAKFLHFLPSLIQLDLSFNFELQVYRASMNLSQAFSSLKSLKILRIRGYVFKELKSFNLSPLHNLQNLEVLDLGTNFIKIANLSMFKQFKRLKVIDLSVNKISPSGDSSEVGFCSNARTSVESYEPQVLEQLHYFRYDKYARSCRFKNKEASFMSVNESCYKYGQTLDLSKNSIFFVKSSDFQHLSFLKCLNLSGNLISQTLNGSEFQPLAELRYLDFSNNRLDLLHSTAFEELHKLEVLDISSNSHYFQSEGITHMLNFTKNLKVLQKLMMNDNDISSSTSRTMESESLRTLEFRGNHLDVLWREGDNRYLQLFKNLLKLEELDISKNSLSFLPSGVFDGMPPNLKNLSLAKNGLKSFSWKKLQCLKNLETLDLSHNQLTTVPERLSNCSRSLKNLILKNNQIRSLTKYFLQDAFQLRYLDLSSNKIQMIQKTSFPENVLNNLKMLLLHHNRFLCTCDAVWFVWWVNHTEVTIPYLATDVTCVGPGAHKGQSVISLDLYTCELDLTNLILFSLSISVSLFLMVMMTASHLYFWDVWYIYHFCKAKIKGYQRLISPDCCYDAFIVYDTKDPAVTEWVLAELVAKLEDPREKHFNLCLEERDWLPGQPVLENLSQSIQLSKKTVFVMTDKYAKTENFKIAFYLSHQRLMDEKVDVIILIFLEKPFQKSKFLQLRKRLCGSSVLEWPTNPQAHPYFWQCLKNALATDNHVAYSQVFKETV
Experiment: HEK293-Blue-hTLR-7 cells assay (SEAP reporter, R848 stimulation)
Format: cell-based
Parameters: host or cells: HEK293 (HEK-Blue)
Conditions: HEK293-Blue-hTLR7 cells, R848, 20 hrs; read-out: HEK/hTLR7 IC50
How it was run: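 HEK293-Blue cells stably expressing human TLR7 with an NF-κB/AP-1-driven SEAP reporter were treated with serially diluted compound (1% DMSO final) plus R848 for 20 h at 37 °C. Supernatant SEAP activity was measured with QUANTI-Blue substrate after 2 h at 37 °C, with absorbance read at 620-655 nm.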

SMILES	IC50 [nM]
COC1CNCc2ccc(N3CCN(C[C@H]4CN(c5ccc(C#N)c6ncccc56)C[C@@H](C)O4)CC3)cc21 (stereo partly drawn) [Example 58, 5-[(2S,6R)-2-[[4-(4-methoxy-1,2,3,4-tetrahydroisoquinolin-6-yl)piperazin-1-yl]methyl]-6-methyl-morpholin-4-yl]quinoline-8-carbonitrile]	16
C[C@@H]1CN(c2ccc(C#N)c3ncccc23)C[C@H](CN2CCN(c3ccc4c(c3)C(O)CN(C)C4)CC2)O1 (stereo partly drawn) [Example 59, 5-[(2S,6R)-2-[[4-(4-hydroxy-2-methyl-3,4-dihydro-1H-isoquinolin-6-yl)piperazin-1-yl]methyl]-6-methyl-morpholin-4-yl]quinoline-8-carbonitrile]	41
Cc1nc2c(nc1N1CCN(C[C@H]3CN(c4ccc(C#N)c5ncccc45)C[C@@H](C)O3)CC1)CCNC2 [Example 60, 5-[(2R,6S)-2-methyl-6-[[4-(3-methyl-5,6,7,8-tetrahydropyrido[3,4-b]pyrazin-2-yl)piperazin-1-yl]methyl]morpholin-4-yl]quinoline-8-carbonitrile]	11
C[C@@H]1CN(c2ccc(C#N)c3ncccc23)C[C@H](CN2CCN(c3ncnc4c3CNCC4)CC2)O1 [Example 61, 5-[(2R,6S)-2-methyl-6-[[4-(5,6,7,8-tetrahydropyrido[4,3-d]pyrimidin-4-yl)piperazin-1-yl]methyl]morpholin-4-yl]quinoline-8-carbonitrile]	5
C[C@@H]1CN(c2ccc(C#N)c3ncccc23)C[C@H](CN2CCN(c3nccc4c3CCNC4)CC2)O1 [Example 62, 5-[(2R,6S)-2-methyl-6-[[4-(5,6,7,8-tetrahydro-2,6-naphthyridin-1-yl)piperazin-1-yl]methyl]morpholin-4-yl]quinoline-8-carbonitrile]	< 3
C[C@@H]1CN(c2ccc(C#N)c3ncccc23)C[C@H](CN2CCN(c3ccc4c(n3)CNCC4)CC2)O1 [Example 69, 5-[(2R,6S)-2-methyl-6-[[4-(5,6,7,8-tetrahydro-1,7-naphthyridin-2-yl)piperazin-1-yl]methyl]morpholin-4-yl]quinoline-8-carbonitrile]	12
C[C@@H]1CN(c2ccc(C#N)c3nccnc23)C[C@H](CN2CCN(c3cc4c(cn3)CCNC4)CC2)O1 [Example 80, 8-[(2R,6S)-2-methyl-6-[[4-(5,6,7,8-tetrahydro-2,6-naphthyridin-3-yl)piperazin-1-yl]methyl]morpholin-4-yl]quinoxaline-5-carbonitrile]	8
COc1ccc(N2CCN(C[C@H]3CN(c4ccc(C#N)c5ncccc45)C[C@@H](C)O3)CC2)cc1 [Example R1, 5-[(2S,6R)-2-[[4-(4-methoxyphenyl)piperazin-1-yl]methyl]-6-methyl-morpholin-4-yl]quinoline-8-carbonitrile, reference compound]	95
C[C@@H]1CN(c2ccc(C#N)c3ncccc23)C[C@H](CN2CCN(c3ccc(Cl)cc3)CC2)O1 [Example R2, 5-[(2S,6R)-2-[[4-(4-chlorophenyl)piperazin-1-yl]methyl]-6-methyl-morpholin-4-yl]quinoline-8-carbonitrile, reference compound]	210
